Data: US20250032484A1, “THERAPEUTIC TARGETS AND AGENTS FOR THE TREATMENT OF POSTTRAUMATIC STRESS DISORDER” (priority 2021, published 2025)

Tested on: VA patients with PTSD (PTSD symptoms, PTSD Checklist)
Assay: TreeScan nested case-control study of medications associated with PTSD symptom improvement (PTSD Checklist) in VA records
Format: in vivo, human
Settings: for association with PTSD symptom improvement, in words (statistical alert at P<0.1): overall sample
Description: Study Sample and Data Sources. A nested case-control study was conducted within a previously established retrospective cohort that included all VA users with a clinical diagnosis of PTSD (International Classification of Diseases [ICD]-9:309.81, ICD-10: F43.1x) from Oct. 1, 1999 through Sep. 30, 2019 (Shiner et al. (2021) J Eval Clin Pract.). The data source contains information on services use, clinical diagnoses, filled prescriptions, and patient-reported outcome measures (PROMs) for PTSD using the PTSD Checklist (PCL) for these patients. This study was approved by the Veterans Institutional Review Board of Northern New England.
The goal of the current study was to evaluate any filled medications associated with PTSD symptom improvement, and as such, the analytic sample for this study included only patients with PROMs that were at least 30 days apart. 30 days was selected to allow for medications to be taken for at least one full course (typically 28 days). Patients with PROMs more than 365 days apart were excluded as these are unlikely to provide an accurate assessment of PTSD symptom change between the two time points. For patients who had two overlapping PROM intervals, those closest to 84 days in length were chosen to emulate typical PTSD medication efficacy trials (Watts et al. (2013) J Clin Psychiatry. 74: e541-550). When a patient had two or more overlapping intervals at exactly 84 days, the historically earliest interval was chosen. If patients had multiple non-overlapping intervals, all were included. Patients who met the selection criteria for PTSD in the original cohort and had at least one PROM pair where they started a new medication (defined below) constituted the overall analytic sample for the current study.
PTSD Improvement Cases and No Improvement Controls. In order to maximize the number of patients with available symptomatic measurement, two different versions of a PROM for PTSD were integrated into a single dataset (Shiner et al. (2021) J Eval Clin Pract.). The two PROMs were the PCL versions aligned to the Diagnostic and Statistical Manual of Mental Disorders (DSM), version IV and Version 5 (APA (2000): Diagnostic and Statistical Manual of Mental Disorders. 4th Edition. Text Revision: DSM-IV-TR. Arlington, VA: American Psychiatric Association: APA (2013): Diagnostic and Statistical Manual of Mental Disorders: Fifth Edition (DSM-5). Washington, D.C.: American Psychiatric Association), which will heretofore be called the PCL-IV and the PCL-5 (Blevins et al. (2015) J Trauma Stress. 28:489-498: Weathers et al. (1993) Trauma. Coping. and Adaptation. San Antonio, Texas: International Society for Traumatic Stress Studies, 9th Annual Meeting). […] A validated crosswalk (ICC=0.96) was used to convert all values to PCL-5 scoring (Moshier et al. (Under review): An empirical crosswalk for the PTSD Checklist: Translating DSM-IV to DSM-5). PTSD improvement cases were defined by a clinically meaningful improvement, which was a decrease of 15 points or more between assessment points (Lee et al. (2019) Reliable Change Index and Clinically Significant Margins for the CAPS-5 and PCL-5 among Veterans. Boston, MA: International Society for Traumatic Stress Studies, 35th Annual Meeting). […] Thus, the no PTSD improvement control group was defined as worsening of symptoms or reductions of up to 7 points on the PCL. Improvements between 8 and 14 points were of uncertain clinical significance and were therefore excluded.
Identification and Classification of New Medications. The predictors of interest were initiation of medications for any indication. Candidate agents included those that were started in the interval between PCL pairs and continued for at least a 28-day supply. When patients started multiple medications between a given PCL pair, they contributed information for each of the medications in the tree.

[1] = all patients in the overall sample
[2] = baseline PCL 38 or higher, PTSD diagnosis within 30 days, without any concurrent evidence-based treatment
[3] = baseline PCL score of 38 or higher and PTSD diagnosis within 30 days
[4] = case = improved by 15 or more points on PTSD Checklist, all patients in the overall sample
[5] = improvement in PTSD, all patients in the overall sample
[6] = overall sample without any concurrent evidence-based treatment

| Compound | EXP = Expected Cases [1] | EXP = Expected Cases [2] | O:E = Observed Cases over Expected Cases [2] | OBS = Observed Cases [2] | EXP = Expected Cases [3] | O:E = Observed Cases over Expected Cases [3] | OBS = Observed Cases [3] | OBS = Observed Cases [4] | O:E = Observed Cases over Expected Cases [5] | O:E = Observed Cases over Expected Cases (improvement in PTSD, all patients in the overall sample, listed as pibrentasvir) | EXP = Expected Cases [6] | O:E = Observed Cases over Expected Cases [6] | OBS = Observed Cases [6] | association with PTSD symptom improvement, in words (statistical alert at P<0.1) | O:E = Observed Cases over Expected Cases (improvement in PTSD, all patients in the overall sample, listed as velpatasvir) |
| --- | --- | --- | --- | --- | --- | --- | --- | --- | --- | --- | --- | --- | --- | --- | --- |
| COC(=O)N[C@H](C(=O)N1CCC[C@H]1c1nc2cc(F)c([C@H]3CC[C@H](c4cc5[nH]c([C@@H]6CCCN6C(=O)[C@@H](NC(=O)OC)[C@@H](C)OC)nc5cc4F)N3c3cc(F)c(N4CCC(c5ccc(F)cc5)CC4)c(F)c3)cc2[nH]1)[C@@H](C)OC [Pibrentasvir, pibrentasvir] | 16 | 4 | 3.52 | 14 | 14 | 2.21 | 30 | 33 | 2.09 | 2.09 | 5 | 3.09 | 14 |  |  |
| CNCC[C@@H](Oc1ccccc1C)c1ccccc1 [Atomoxetine] | 74 |  |  |  | 65 | 1.41 | 92 | 104 | 1.40 |  |  |  |  |  |  |
| CN1CCCC1c1cccnc1 (stereo not shown) [Nicotine] | 2109 | 522 | 1.17 | 610 | 1736 |  | 2007 | 2371 | 1.13 |  |  |  |  |  |  |
| CN1CCN2c3ncccc3Cc3ccccc3C2C1 (stereo not shown) [Mirtazapine] |  |  |  |  |  |  |  |  |  |  | 755 | 1.13 | 849 |  |  |
| COc1ccc2[nH]cc(CCNC(C)=O)c2c1 [Melatonin] | 1161 |  |  |  | 1033 | 1.10 | 1131 | 1295 | 1.12 |  |  |  |  |  |  |
| Cholecalciferol | 2470 |  |  |  | 2070 | 1.08 | 2238 | 2647 | 1.07 |  |  |  |  |  |  |
| Fluoxetine | 1571 |  |  |  |  |  |  | 1716 | 1.09 |  |  |  |  | similarly small associations |  |
| Naloxone | 312 |  |  |  | 279 | 1.35 | 376 | 426 | 1.37 |  |  |  |  |  |  |
| [Li] [Lithium] | 246 |  |  |  |  |  |  | 304 | 1.24 |  | 92 | 1.38 | 127 | similarly small associations |  |
| Quetiapine |  |  |  |  |  |  |  |  |  |  | 371 | 1.24 | 460 |  |  |
| CC(C)OC(=O)[C@H](C)N[P@](=O)(OC[C@H]1O[C@@H](n2ccc(=O)[nH]c2=O)[C@](C)(F)[C@@H]1O)Oc1ccccc1 [sofosbuvir] |  |  |  |  |  |  |  |  |  |  |  |  |  | Neither sofosbuvir nor ledipasvir were associated with a significantly higher than expected improvement |  |
| Naltrexone | 504 |  |  |  | 444 | 1.21 | 536 | 605 | 1.20 |  |  |  |  |  |  |
| CN(C)CCCC1(c2ccc(F)cc2)OCc2cc(C#N)ccc21 (stereo not shown) [Citalopram] | 1508 | 632 | 1.25 | 785 | 1202 | 1.10 | 1315 | 1653 | 1.10 |  | 814 | 1.28 | 1039 | similarly small associations |  |
| Cc1ncc(C[n+]2csc(CCO)c2C)c(N)n1 [Thiamine] | 351 |  |  |  | 304 | 1.24 | 377 | 444 | 1.27 |  | 106 | 1.38 | 146 |  |  |
| CN(C)CCC[C@@]1(c2ccc(F)cc2)OCc2cc(C#N)ccc21 [Escitalopram] |  |  |  |  |  |  |  |  |  |  | 474 |  | 558 |  |  |
| O=c1n(CCCN2CCN(c3cccc(Cl)c3)CC2)nc2ccccn12 [Trazodone] | 4061 | 893 | 1.12 | 992 | 3396 | 1.07 | 3610 | 4308 | 1.06 |  | 1157 | 1.1 | 1272 | similarly small associations |  |
| Nc1nc2ncc(CNc3ccc(C(=O)N[C@@H](CCC(=O)O)C(=O)O)cc3)nc2c(=O)[nH]1 [Folic Acid] | 445 |  |  |  | 391 | 1.20 | 469 | 567 | 1.27 |  | 134 | 1.38 | 185 |  |  |
| COC[C@H]1C[C@@H](c2ncc(-c3ccc4c(c3)COc3cc5c(ccc6[nH]c([C@@H]7CC[C@H](C)N7C(=O)[C@@H](NC(=O)OC)C(C)C)nc65)cc3-4)[nH]2)N(C(=O)[C@H](NC(=O)OC)c2ccccc2)C1 [Velpatasvir, velpatasvir] | 11 |  |  |  | 10 | 2.17 | 21 | 24 | 2.10 |  |  |  |  |  | 2.10 |
| COC(=O)N[C@H](C(=O)N1CC2(CC2)C[C@H]1c1nc(-c2ccc3c(c2)C(F)(F)c2cc(-c4ccc5nc([C@@H]6[C@H]7CC[C@H](C7)N6C(=O)[C@@H](NC(=O)OC)C(C)C)[nH]c5c4)ccc2-3)c[nH]1)C(C)C [ledipasvir] |  |  |  |  |  |  |  |  |  |  |  |  |  | Neither sofosbuvir nor ledipasvir were associated with a significantly higher than expected improvement |  |
| Sertraline | 4025 |  |  |  | 3434 |  | 3909 | 4659 |  |  |  |  |  |  |  |
